{"source": "patent US10604794B2", "about": "“Method to measure the shortest telomeres” (The Board of Regents of The University of Texas System, priority 2017, dated 2020)", "key": {"[1]": {"system": "H2087 cells", "test": "TRF analysis of telomere length in H2087 cells under long-term imetelstat treatment", "type": "cell-based", "settings": "1 μM imetelstat 3 times per week, 10 and 18 weeks treatment", "protocol": "(§1) FIGS. 2A-2C. Measuring TL in long-term telomerase inhibition with imetelstat (1 μM) treatment and after a removal of drug in H2087 cells. (2A) Isolated DNA from H2087 cells with 1 μM imetelstat treatment for 0, 10 and 18 weeks, and post released from 18 weeks for 1, 2, 3, 4, and 5 weeks was digested with the same REs for TeSLA (BfaI/CviAII/MseI/NdeI) and then separated with 0.7% agarose gel for TRF analysis. (2B) Interphase Q-FISH; cells from H2087 with 0, and 18 weeks 1 μM imetelstat treatment, and 5 weeks after drug removal were used to measure TL by Q-FISH. The results were quantified using TFL-Telo software (n: numbers of nuclei were quantified for each time point as indicated above). (2C) Results of TeSLA using DNA as indicated. Four TeSLA reactions (30 pg of each reaction) were performed for each DNA sample.\n(§2) To further examine the utility of TeSLA in studying telomere dynamics, the inventors evaluated TL dynamics in a telomerase positive non-small cell lung cancer (NSCLC) cell line (H2087). These cells were subjected to long-term telomerase inhibition treatment and then released to observe the dynamic of telomere re-elongation. The results were compared using TeSLA, TRF and telomere Q-FISH. […] In contrast, TeSLA is able to detect TL in both imetelstat treated cells and cells post released from drug in a much more quantitative manner (FIG. 2C). […]"}, "[2]": {"system": "NSCLC cell lines", "settings": "long-term treatment, multiple NSCLC cell lines; cited from earlier work"}, "[3]": {"system": "telomerase", "settings": "binds to the active site of telomerase RNA; cited from earlier work"}, "[4]": {"system": "H2087 cells", "test": "Interphase Q-FISH telomere length in H2087 cells under long-term imetelstat treatment", "type": "cell-based", "settings": "1 μM imetelstat, 18 weeks treatment compared to 0 weeks and 5 weeks after drug removal", "protocol": "as §1, §2"}}, "data": [{"substance": "imetelstat", "values": [{"measurement": "average TL change by TRF analysis", "setting": "[1]", "value": "average TL shortening"}, {"measurement": "average TL change", "setting": "[2]", "value": "shorten average TL"}, {"measurement": "telomerase activity", "setting": "[3]", "value": "robustly inhibits telomerase activity"}, {"measurement": "telomere signals by Q-FISH", "setting": "[4]", "value": "only a few telomere signals with relatively low intensity were detected"}]}]}
